Literature values, collected in US20020004046A1, “Combination therapy of respiratory diseases using antibodies” (priority 2000, published 2002).

Key:
[1] = compared with untreated patients

## NC(=O)c1ncn([C@@H]2O[C@H](CO)[C@@H](O)[C@H]2O)n1 [ribavirin]
[1]
  level of secondary infection following cessation of treatment: significantly higher
Given orally
  bioavailability: about 45%
In vivo, po
  time of peak concentrations in plasma: 1 to 2 h
